Assay results from patent US8916183B2, “Pesticidal compositions and processes related thereto” (priority 2012, dated 2014).
Like-named read-outs stand apart in the source and are kept apart here.

What was measured:
[1] = tested on: Corn Earworm (CEW) (Helicoverpa zea); assay: Bioassay on corn earworm (CEW), 128-well diet tray assay; assay type: in vivo; conditions: Helicoverpa zea, read-out: % Mortality CEW 50 μg/cm^2
Protocol: (§1) Certain molecules disclosed in this document were tested against BAW and CEW using procedures described in the following examples. In the reporting of the results, the “BAW & CEW Rating Table” was used (See Table Section).
Bioassays on CEW (Helicoverpa zea)
Bioassays on CEW were conducted using a 128-well diet tray assay. […] Trays were covered with a clear self-adhesive cover and held at 25° C., 14:10 light-dark for five to seven days. Percent mortality was recorded for the larvae in each well; activity in the eight wells was then averaged. The results are indicated in the table entitled “Table 5: Biological Results” (See Table Section).

[2] = tested on: Beet Armyworm (BAW) (Spodoptera exigua); assay: Bioassay on beet armyworm (BAW), 128-well diet tray assay; assay type: in vivo; conditions: Spodoptera exigua, read-out: % Mortality BAW 50 μg/cm^2
Protocol: as §1
Bioassays on BAW (Spodoptera exigua)
Bioassays on BAW were conducted using a 128-well diet tray assay. […] Trays were covered with a clear self-adhesive cover and held at 25° C., 14:10 light-dark for five to seven days. Percent mortality was recorded for the larvae in each well; activity in the eight wells was then averaged. The results are indicated in the table entitled “Table 5: Biological Results” (See Table Section).

| SMILES | mortality at 50 µg/cm2 ([1]; corn earworm, 50 μg/cm^2) | mortality at 50 µg/cm2 ([2]; beet armyworm, 50 μg/cm^2) | mortality at 50 µg/cm2 [1] | mortality at 50 µg/cm2 [2] |
| --- | --- | --- | --- | --- |
| CC1CS/C(=N\N=C\c2ccc(-c3ncn(-c4ccc(OC(F)(F)F)cc4)n3)cc2)N1c1c(F)cccc1F (stereo not shown) [Compound 159C] | 50 to 100% | 50 to 100% | – | – |
| O=C1CCS/C(=N\N=C\c2ccc(-c3ncn(-c4ccc(OC(F)(F)F)cc4)n3)cc2)N1c1ccccc1OC(F)F [Compound 233C] | 50 to 100% | 50 to 100% | – | – |
| CCC1CS/C(=N\N=C\c2ccc(-c3ncn(-c4ccc(OC(F)(F)F)cc4)n3)cc2)N1c1ccccc1C (stereo not shown) [Compound 166C] | 50 to 100% | 50 to 100% | – | – |
| CC1CCS/C(=N\N=C\c2ccc(-c3ncn(-c4ccc(OC(F)(F)F)cc4)n3)cc2)N1c1ccccc1C(C)(C)C (stereo not shown) [Compound 222C] | 50 to 100% | 50 to 100% | – | – |
| COc1cc(C)c(N2C(=O)CSC2=NN=Cc2ccc(-c3ncn(-c4ccc(OC(F)(F)F)cc4)n3)cc2)c(C)c1 (stereo in doubt) [Compound 69C, (Z)-3-(4-methoxy-2,6-dimethylphenyl)-2-((E)-(4-(1-(4-(trifluoromethoxy)phenyl)-1H-1,2,4-triazol-3-yl)benzylidene)hydrazono)thiazolidin-4-one] | 50 to 100% | 50 to 100% | – | – |
| Cc1cs/c(=N\N=C\c2ccc(-c3ncn(-c4ccc(OC(F)(F)F)cc4)n3)cc2)n1-c1ccccc1C(C)C [Compound 176C] | 50 to 100% | 50 to 100% | – | – |
| COc1ccc(/N=C(/N/N=C/c2ccc(-c3ncn(-c4ccc(OC(F)(F)C(F)(F)F)cc4)n3)cc2)SCC(=O)O)c(C)c1 [Compound 50C] | 50 to 100% | 50 to 100% | – | – |
| CCc1cccc(C)c1N1C(=O)CCS/C1=N\N=C\c1ccc(-c2ncn(-c3ccc(OC(F)(F)F)cc3)n2)cc1 [Compound 225C] | 50 to 100% | 50 to 100% | – | – |
| CC(C)(C)c1ccccc1N1C(=O)CCS/C1=N\N=C\c1ccc(-c2ncn(-c3ccc(OC(F)(F)F)cc3)n2)cc1 [Compound 232C] | 50 to 100% | 50 to 100% | – | – |
| C/C(=N\N=C1/SCC(=O)N1c1ccccc1CC(C)C)c1ccc(-c2ncn(-c3ccc(OC(F)(F)F)cc3)n2)cc1 [Compound 122C] | 50 to 100% | 50 to 100% | – | – |
| COc1ccc(N2C(=O)CS/C2=N\N=C\c2ccc(-c3ncn(-c4ccc(OC(F)(F)F)cc4)n3)cc2)cc1 [Compound 115C] | 0% | 0 to 50% | – | – |
| O=C1CCS/C(=N\N=C\c2ccc(-c3ncn(-c4ccc(OC(F)(F)F)cc4)n3)cc2)N1c1c(F)cccc1F [Compound 226C] | 50 to 100% | 50 to 100% | – | – |
| COc1ccc(N2C(=O)CS/C2=N\N=C\c2ccc(-c3ncn(-c4ccc(OC(F)(F)F)cc4)n3)cc2)c(C)c1 [Compound 114C] | 50 to 100% | 50 to 100% | – | – |
| Cc1cccc(C)c1/N=C(/N/N=C/c1ccc(-c2ncn(-c3ccc(OC(F)(F)F)cc3)n2)cc1)SCC(=O)NCCCN(C)C(=O)OC(C)(C)C [Compound 61C] | – | – | 50 to 100% | 50 to 100% |
| O=C1CS/C(=N\N=C\c2ccc(-c3cn(-c4ccc(OC(F)(F)F)cc4)cn3)cc2)N1c1c(Cl)cccc1Cl [Compound 102C] | 50 to 100% | 50 to 100% | – | – |
| CC1CS/C(=N\N=C\c2ccc(-c3ncn(-c4ccc(OC(F)(F)F)cc4)n3)cc2)N(c2ccccc2OC(F)(F)F)C1 (stereo not shown) [Compound 214C] | 50 to 100% | 50 to 100% | – | – |
| CC(C)c1ccccc1N1/C(=N/N=C/c2ccc(-c3ncn(-c4ccc(OC(F)(F)F)cc4)n3)cc2)SCC1(O)C(F)(F)F (racemic) [Compound 246C] | 50 to 100% | 50 to 100% | – | – |
| Cc1cc(C)c(N2/C(=N/N=C/c3ccc(-c4ncn(-c5ccc(OC(F)(F)F)cc5)n4)cc3)SCC2C)c(C)c1 (stereo not shown) [Compound 161C] | 50 to 100% | 50 to 100% | – | – |
| Cc1cccc(N2/C(=N/N=C/c3ccc(-c4ncn(-c5ccc(OC(F)(F)F)cc5)n4)cc3)SCC2(C)O)c1C(C)C (stereo not shown) [Compound 252C] | 50 to 100% | 50 to 100% | – | – |
| O=C1CS/C(=N\N=C\c2ccc(-c3ncn(-c4ccc(OC(F)(F)F)cc4)n3)cc2)N1c1ccccc1OC(F)(F)F [Compound 124C] | 50 to 100% | 50 to 100% | – | – |

| SMILES | mortality at 50 µg/cm2 ([1]; corn earworm, 50 μg/cm^2) | mortality at 50 µg/cm2 ([2]; beet armyworm, 50 μg/cm^2) | mortality at 50 µg/cm2 [1] | mortality at 50 µg/cm2 [2] |
| --- | --- | --- | --- | --- |
| COC(=O)C1CC(c2ccc(/C=N/N=C3\SCC(=O)N3c3c(Cl)cccc3Cl)cc2)=NN1c1ccc(OC(F)(F)F)cc1 (stereo not shown) [Compound 109C] | 50 to 100% | 50 to 100% | – | – |
| COc1ccc(N2/C(=N/N=C/c3ccc(-c4ncn(-c5ccc(OC(F)(F)F)cc5)n4)cc3)SCCC2C)c(C)c1 (stereo not shown) [Compound 219C] | 50 to 100% | 50 to 100% | – | – |
| COc1cccc(N2C(=O)CS/C2=N\N=C\c2ccc(-c3ncn(-c4ccc(OC(F)(F)F)cc4)n3)cc2)c1 [Compound 91C] | 0% | 0% | – | – |
| CC(C)c1ccccc1N1CCS/C1=N\N=C\c1ccc(-c2ncn(-c3ccc(C(F)(F)F)cc3)n2)cc1 [Compound 134C] | 50 to 100% | 50 to 100% | – | – |
| O=C1CS/C(=N\N=C\c2ccc(-c3ncn(-c4ccc(OC(F)(F)F)cc4)n3)cc2)N1c1ccccc1OC(F)F [Compound 126C] | 50 to 100% | 50 to 100% | – | – |
| COc1ccc(N2C(=O)CCS/C2=N\N=C\c2ccc(-c3ncn(-c4ccc(OC(F)(F)F)cc4)n3)cc2)c(C)c1 [Compound 231C] | 50 to 100% | 50 to 100% | – | – |
| CCC(C)c1ccccc1N1/C(=N/N=C/c2ccc(-c3ncn(-c4ccc(OC(F)(F)F)cc4)n3)cc2)SCC1(O)C(F)(F)F (stereo not shown) [Compound 247C] | 50 to 100% | 50 to 100% | – | – |
| CC1(O)CS/C(=N\c2c(Cl)cccc2C(F)(F)F)N1/N=C/c1ccc(-c2ncn(-c3ccc(OC(F)(F)F)cc3)n2)cc1 (stereo not shown) [Compound 241C, (Z)-2-((2-chloro-6-(trifluoromethyl)phenyl)imino)-4-methyl-3-((E)-(4-(1-(4-(trifluoromethoxy)phenyl)-1H-1,2,4-triazol-3-yl)benzylidene)amino)thiazolidin-4-ol] | 50 to 100% | 50 to 100% | – | – |
| O=C1CS/C(=N\N=C\c2ccc(-c3ncn(-c4ccc(OC(F)(F)F)cc4)n3)cc2)N1c1ccccc1Cl [Compound 106C] | 50 to 100% | 50 to 100% | – | – |
| CC1CCS/C(=N\N=C\c2ccc(-c3ncn(-c4ccc(OC(F)(F)F)cc4)n3)cc2)N1c1ccccc1OC(F)(F)F (stereo not shown) [Compound 216C] | 50 to 100% | 50 to 100% | – | – |
| FC(F)(F)Oc1ccc(-n2cnc(-c3ccc(/C=N/N=C4\SCCN4c4ccccc4OC(F)(F)F)cc3)n2)cc1 [Compound 153C] | 50 to 100% | 0% | – | – |
| CC1S/C(=N\N=C\c2ccc(-c3ncn(-c4ccc(OC(F)(F)F)cc4)n3)cc2)N(c2c(Cl)cccc2Cl)C1=O (stereo not shown) [Compound 129C] | 50 to 100% | 50 to 100% | – | – |
| Fc1cccc(Cl)c1N1CCS/C1=N\N=C\c1ccc(-c2ncn(-c3ccc(OC(F)(F)F)cc3)n2)cc1 [Compound 143C] | 50 to 100% | 50 to 100% | – | – |
| CCc1cccnc1N1C(=O)CS/C1=N\N=C\c1ccc(-c2ncn(-c3ccc(OC(F)(F)F)cc3)n2)cc1 [Compound 123C] | 50 to 100% | 50 to 100% | – | – |
| COc1ccc(N2/C(=N/N=C/c3ccc(-c4ncn(-c5ccc(OC(F)(F)F)cc5)n4)cc3)SCC2C)c(C)c1 (stereo not shown) [Compound 162C] | 50 to 100% | 50 to 100% | – | – |
| CCOc1ccccc1N1C(=O)CS/C1=N\N=C\c1ccc(-c2ncn(-c3ccc(OC(F)(F)F)cc3)n2)cc1 [Compound 116C] | 50 to 100% | 50 to 100% | – | – |
| CCOC(=O)c1ccccc1N1C(=O)CS/C1=N\N=C\c1ccc(-c2ncn(-c3ccc(OC(F)(F)F)cc3)n2)cc1 [Compound 107C] | 0% | 0% | – | – |
| CCc1cc(OC)ccc1N1/C(=N/N=C/c2ccc(-c3ncn(-c4ccc(OC(F)(F)C(F)(F)F)cc4)n3)cc2)SCC1(C)O (stereo not shown) [Compound 264C] | – | 50 to 100% | – | – |
| CCOc1cccc(OCC)c1N1C(=O)CS/C1=N\N=C\c1ccc(-c2ncn(-c3ccc(OC(F)(F)F)cc3)n2)cc1 [Compound 98C] | – | 50 to 100% | – | – |
